By Kd is commonly meant a measure of binding affinity in units of concentration. Lower therefore signals higher affinity.

This experiment deals with CRBN-DDB1 (Homo sapiens (Human), UniProt Q96SW2). Kind of experiment: Fluorescence polarization (FP) assay for compound ligand binding to CRBN-DDB1. The settings on record: FP displacement of (−)-Thalidomide-Alexa Fluor or Pomalidomide-fluorescein probe, 400 nM CRBN-DDB1, 5 nM probe. On the procedure: Measuring compound ligand binding to CRBN-DDB1 was carried out using an established sensitive and quantitative in vitro fluorescence polarization (FP) based binding assay. […] Compounds were dispensed from serially diluted DMSO stock into black 384-well compatible fluorescence polarization plates using an Echo acoustic dispenser. Compound binding to CRBN-DDB1 was measured by displacement of either a (−)-Thalidomide-Alexa Fluor® or Pomalidomide-fluorescein conjugated probe dye. […] Matching control wells excluding CRBN-DDB1 were used to correct for background fluorescence. Plates were read on an Envision plate reader with appropriate FP filter sets. The corrected S (perpendicular) and P (parallel) values were used to calculate fluorescence polarization (FP) with the following equation: […]
CRBN-DDB1, sequence (Q96SW2 whole entry): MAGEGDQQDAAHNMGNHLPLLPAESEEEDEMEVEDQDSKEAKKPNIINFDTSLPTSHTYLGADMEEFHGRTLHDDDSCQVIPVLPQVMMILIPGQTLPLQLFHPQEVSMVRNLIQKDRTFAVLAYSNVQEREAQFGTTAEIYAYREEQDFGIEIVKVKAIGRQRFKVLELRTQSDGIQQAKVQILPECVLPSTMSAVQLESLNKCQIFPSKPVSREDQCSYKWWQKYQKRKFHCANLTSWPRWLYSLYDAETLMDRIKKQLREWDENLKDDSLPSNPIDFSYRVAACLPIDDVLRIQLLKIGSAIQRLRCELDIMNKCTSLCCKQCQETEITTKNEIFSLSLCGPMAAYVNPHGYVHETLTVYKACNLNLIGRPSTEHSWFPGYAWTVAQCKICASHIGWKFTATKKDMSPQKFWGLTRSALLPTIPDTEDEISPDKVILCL
CRBN-DDB1, sequence (Q16531 whole entry partner): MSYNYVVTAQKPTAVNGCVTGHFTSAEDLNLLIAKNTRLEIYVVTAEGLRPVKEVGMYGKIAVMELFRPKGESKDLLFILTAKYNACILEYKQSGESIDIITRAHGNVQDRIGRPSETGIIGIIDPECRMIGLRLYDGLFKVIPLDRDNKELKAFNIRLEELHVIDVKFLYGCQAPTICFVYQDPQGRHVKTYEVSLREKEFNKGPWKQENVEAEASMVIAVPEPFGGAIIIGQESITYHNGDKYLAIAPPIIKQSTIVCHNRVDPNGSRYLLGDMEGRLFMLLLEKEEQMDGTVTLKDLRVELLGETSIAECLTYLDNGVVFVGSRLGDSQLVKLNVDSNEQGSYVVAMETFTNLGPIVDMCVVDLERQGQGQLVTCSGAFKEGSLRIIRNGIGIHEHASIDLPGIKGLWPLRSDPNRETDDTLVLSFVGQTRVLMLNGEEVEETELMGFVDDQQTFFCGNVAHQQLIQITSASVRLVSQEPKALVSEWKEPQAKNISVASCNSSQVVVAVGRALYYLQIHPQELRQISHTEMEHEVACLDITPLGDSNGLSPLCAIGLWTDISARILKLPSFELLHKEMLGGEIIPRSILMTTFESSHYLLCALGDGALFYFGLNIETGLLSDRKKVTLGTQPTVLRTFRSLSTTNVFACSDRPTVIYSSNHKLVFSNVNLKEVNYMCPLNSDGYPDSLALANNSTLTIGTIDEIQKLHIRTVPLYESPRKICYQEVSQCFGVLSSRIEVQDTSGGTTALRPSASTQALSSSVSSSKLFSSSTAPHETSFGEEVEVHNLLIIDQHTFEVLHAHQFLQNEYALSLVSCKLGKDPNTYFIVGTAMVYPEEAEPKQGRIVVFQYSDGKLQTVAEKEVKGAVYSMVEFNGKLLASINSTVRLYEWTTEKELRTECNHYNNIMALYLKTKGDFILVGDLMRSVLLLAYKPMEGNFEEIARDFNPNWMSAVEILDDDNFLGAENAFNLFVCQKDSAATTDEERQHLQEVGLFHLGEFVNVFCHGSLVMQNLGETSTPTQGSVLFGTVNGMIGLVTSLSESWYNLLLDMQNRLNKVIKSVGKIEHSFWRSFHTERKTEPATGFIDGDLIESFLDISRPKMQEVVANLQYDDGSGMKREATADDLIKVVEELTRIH
In general terms: In fluorescence polarisation assays a small probe gives low polarisation when free and higher when bound to something large.

Where [1] appears, read: Compounds of the Present Invention.
Setting [2] is: Additional Compounds of the Present Invention.

Counter-ions that a name gives are not always drawn.

`CC(C)(C)OC(=O)N1CCN(C2=CC(=O)NC2=O)CC1` [Compound 111] had a Kd under setting [1] of over 100 µM.

As to `O=C1C=C(Nc2ccccc2)C(=O)N1` [Compound 112], under setting [1], the Kd was over 100 µM.

Under setting [1], `O=C1CCC(N2CCc3cccnc32)C(=O)N1` (centres unmarked) [Compound 118] had a dissociation constant Kd of over 100 µM.

With `COC(=O)c1cccnc1NC1CCC(=O)NC1=O` (centres unmarked) [Compound 122], under setting [1], the Kd was over 100 µM.

`CN1CCN(c2ccc(OC3CCC(=O)NC3=O)cc2)CC1` (centres unmarked) [Compound 126] registered a Kd under setting [1] of under 10 µM.

Turning to `CC(C)(C)OC(=O)N1CCN(c2ccc(OC3CCC(=O)NC3=O)cc2)CC1` (centres unmarked) [Compound 132, 4-[4-(2,6-Dioxo-piperidin-3-yloxy)-phenyl]-piperazine-1-carboxylic acid tert-butyl ester], the Kd under setting [2] is under 10 µM.

In the case of `O=C1CCC(Oc2ccc(N3CCNCC3)cc2)C(=O)N1` (centres unmarked) [Compound 133, 3-(4-Piperazin-1-yl-phenoxy)-piperidine-2,6-dione hydrochloride], the Kd under setting [2] was under 10 µM.

Under setting [2], `O=C1CCC(OC2CCN(c3ccccc3)CC2)C(=O)N1` (centres unmarked) [Compound 134, 3-(1-Phenyl-piperidin-4-yloxy)-piperidine-2,6-dione] registered a dissociation constant (Kd) of over 100 µM.

Compound `O=C1CCC(Oc2ccc3ccccc3c2)C(=O)N1` (centres unmarked) [Compound 135] showed a Kd under setting [2] of under 10 µM.

With `O=C1CCC(Oc2ccccc2C(=O)N2CCCC2)C(=O)N1` (centres unmarked) [Compound 136], the dissociation constant Kd under setting [2] was over 100 µM.

`CCc1ccc(OC2CCC(=O)NC2=O)cc1` (centres unmarked) [Compound 137] registered a Kd under setting [2] of under 10 µM.

Under setting [2], `N#Cc1ccc2cc(OC3CCC(=O)NC3=O)ccc2c1` (centres unmarked) [Compound 138] showed a Kd of under 10 µM.

Under setting [2], `N#Cc1ccc(-c2ccc(OC3CCC(=O)NC3=O)cc2)cc1` (centres unmarked) [Compound 139] showed a Kd of under 10 µM.

In the case of `Cn1ccc2cc(OC3CCC(=O)NC3=O)ccc21` (centres unmarked) [Compound 140], the Kd under setting [2] is under 10 µM.

Consider `CCOc1cccc(OC2CCC(=O)NC2=O)c1` (centres unmarked) [Compound 141], for which, under setting [2], the Kd is under 10 µM.

Compound `CC1(C)Cc2cccc(OC3CCC(=O)NC3=O)c2O1` (centres unmarked) [Compound 145] had a Kd under setting [2] of under 10 µM.

For `O=C1CCC(Oc2cccc3cccnc23)C(=O)N1` (centres unmarked) [Compound 147], the Kd under setting [2] was under 10 µM.

Turning to `O=C1CCC(Oc2ccc3c(c2)CCCC3=O)C(=O)N1` (centres unmarked) [Compound 148], under setting [2], the equilibrium dissociation constant (Kd) is under 10 µM.

Under setting [2], `O=C1CCC(Oc2ccc3c(c2)OCO3)C(=O)N1` (centres unmarked) [Compound 149] returned a Kd of under 10 µM.

For the compound `C#Cc1cccc(OC2CCC(=O)NC2=O)c1` (centres unmarked) [Compound 150], the Kd under setting [2] was under 10 µM.

In turn, `CN(C)c1cccc(OC2CCC(=O)NC2=O)c1` (centres unmarked) [Compound 151] had a Kd under setting [2] of under 10 µM.

Turning to `O=C1CCC(Oc2ccc(C3CCCC3)cc2)C(=O)N1` (centres unmarked) [Compound 152], the Kd under setting [2] is under 10 µM.

`CC(=O)CCc1ccc(OC2CCC(=O)NC2=O)cc1` (centres unmarked) [Compound 154] gave a Kd under setting [2] of under 10 µM.

Under setting [2], `CN1Cc2cc(NC3CCC(=O)NC3=O)ccc2C1=O` (centres unmarked) [Compound 160] came in with a Kd of under 10 µM.

Turning to `Cc1sc2c(c1C)C(c1ccc(Cl)cc1)=N[C@@H](CC(=O)NCCCCCCCCN1CCN(c3ccc(NC4CCC(=O)NC4=O)cc3)CC1)c1nnc(C)n1-2` (stereo partly drawn) [Degronimer 1, 2-((S)-4-(4-chlorophenyl)-2,3,9-trimethyl-6H-thieno[3,2-f][1,2,4]triazolo[4,3-a][1,4]diazepin-6-yl)-N-(8-(4-(4-((2,6-dioxopiperidin-3-yl)amino)phenyl)piperazin-1-yl)octyl)acetamide], the equilibrium dissociation constant (Kd) (Degronimers) was under 10 µM.

`Cc1nnc2n1-c1ccc(-c3cnn(CCCCCCN4CCN(c5ccc(NC6CCC(=O)NC6=O)cc5)CC4)c3)cc1C(c1ccc(Cl)cc1)=NC21CC1` (centres unmarked) [Degronimer 2, 3-((4-(4-(6-(4-(6-(4-chlorophenyl)-1-methylspiro[benzo[f][1,2,4]triazolo[4,3-a][1,4]diazepine-4,1′-cyclopropan]-8-yl)-1H-pyrazol-1-yl)hexyl)piperazin-1-yl)phenyl)amino)piperidine-2,6-dione] yielded a Kd (Degronimers) of under 10 µM.

These data come from US20230279023A1, “N/O-Linked Degrons and Degronimers for Protein Degradation” (C4 Therapeutics, Inc., priority 2019, published 2023).
